# Reference: patent US20160051570A1, “TREATMENT OF RHEUMATOID ARTHRITIS” (Ganderland and Associates, Inc., priority 2014, published 2016)
# System: RA
# Test: Previous drug treatment of the same RA patients (patient history)
# Type: in vivo, human
# Settings: drug taken before the composition
row,Compound,effect in remission of the disease
1,"Cc1oncc1C(=O)Nc1ccc(C(F)(F)F)cc1 [arava, leflunomide]",without any real effect
2,CN(Cc1cnc2nc(N)nc(N)c2n1)c1ccc(C(=O)N[C@@H](CCC(=O)O)C(=O)O)cc1 [methotrexate],without any real effect
3,C[C@]12C=CC(=O)C=C1CC[C@@H]1[C@@H]2C(=O)C[C@@]2(C)[C@H]1CC[C@]2(O)C(=O)CO [prednisone],without any real effect
4,ENBREL®,without any real effect
